Measured values: patent US5635502A, “Mercaptoacetylamide bicyclic lactam derivatives useful as inhibitors of enkephalinase and ACE” (Merrell Pharmaceuticals Inc., priority 1995, dated 1997)
Where a SMILES comes first, the peptide text is derived from it. [ ]: non-standard residue; d: D form. The star is where a group is joined. Phe(4-NO2) = N[C@@H](Cc1ccc([N+](=O)[O-])cc1)C(=O)O; Dansyl = CN(C)c1cccc2c(S(=O)(=O)*)cccc12

Target: T1, Enkephalinase (endopeptidase-24.11) partially purified from rat kidney (Rattus norvegicus, UniProt P07861)
T1 construct: Enkephalinase is partially purified from rat kidney; from tissue; host or cells: rat kidney, microvilli fraction
T1 sequence (P07861 1-750): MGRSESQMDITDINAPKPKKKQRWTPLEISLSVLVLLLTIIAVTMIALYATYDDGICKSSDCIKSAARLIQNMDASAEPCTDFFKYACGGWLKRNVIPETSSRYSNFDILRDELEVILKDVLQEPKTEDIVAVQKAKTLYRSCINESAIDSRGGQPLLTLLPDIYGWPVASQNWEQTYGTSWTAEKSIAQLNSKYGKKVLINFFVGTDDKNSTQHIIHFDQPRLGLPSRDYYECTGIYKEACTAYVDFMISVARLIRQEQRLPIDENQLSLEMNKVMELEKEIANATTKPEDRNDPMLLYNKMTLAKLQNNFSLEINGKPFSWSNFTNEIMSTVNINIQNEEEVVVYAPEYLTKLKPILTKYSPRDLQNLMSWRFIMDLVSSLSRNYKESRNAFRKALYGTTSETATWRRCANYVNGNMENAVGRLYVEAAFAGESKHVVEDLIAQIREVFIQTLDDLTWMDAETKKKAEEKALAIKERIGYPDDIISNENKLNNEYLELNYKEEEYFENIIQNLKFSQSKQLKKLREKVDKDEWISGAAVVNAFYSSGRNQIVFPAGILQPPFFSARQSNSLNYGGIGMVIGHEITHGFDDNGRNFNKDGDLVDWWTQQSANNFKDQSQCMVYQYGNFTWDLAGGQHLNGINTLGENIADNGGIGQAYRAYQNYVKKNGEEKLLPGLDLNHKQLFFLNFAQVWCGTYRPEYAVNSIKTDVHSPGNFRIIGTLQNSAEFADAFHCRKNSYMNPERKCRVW
Assay: Enkephalinase fluorometric assay with substrate dansyl-D-AlaGly(p-nitro)PheGly
Assay type: biochemical
Details: substrate of enkephalinase; 50 mM HEPES buffer pH 7.4, 25° C.
Excerpt: Enkephalinase is partially purified from rat kidney. The enzyme is extracted from the microvilli fraction by using Triton X-100 according to the method of Malfroy and Schwartz [J. Biol. Chem. 259, 14365-14370 (1984)] or by using a proteolytic treatment according to the method of Almenoff and Orlowski [Biochem. 22, 590-599 (1983)]. The enzyme is further purified by anion exchange chromatography (Mono Q™ column, Pharmacia) using a Pharmacia FPLC system. The enzyme activity may be measured by the fluorometric methods of Florentin et al. [Anal. Biochem. 141, 62-69 (1984)] or of Almenoff and Orlowski [J. Neurochemistry 42, 151-157 (1984)]. The enzyme is assayed in 50 mM HEPES buffer (pH 7.4) in a 3.0 mL reaction volume containing 12 μM of the substrate dansyl-D-AlaGly(p-nitro)PheGly (Km =40 μM) at 25° C. The substrate (and inhibitor) is added from a concentrated stock solution in DMSO (up to 0.1 mL DMSO final volume). The enzyme in a small volume (approximately 0.1 μg of FPLC purified protein) is added to initiate the reaction and the rate of fluorescence increase is recorded continuously using a fluorometer (excitation at 339 nm, emission at 562 nm).

Km: 40 µM
Structure (SMILES): C[C@@H](NS(=O)(=O)c1cccc2c(N(C)C)cccc12)C(=O)NCC(=O)N[C@@H](Cc1ccc([N+](=O)[O-])cc1)C(=O)NCC(=O)O [dansyl-D-AlaGly(p-nitro)PheGly] (Dansyl-[dA]G[Phe(4-NO2)]G-OH)
